Experiment [1] concerns PAPD5. Description: Y3H ULTImate YChemH 1-by-1 validation (prey fragments, full length proteins). To be noted: PAPD5 variant 1 and variant 2 fragments; already at the lowest tested concentration (5 of 5, 10, 20 μM); FIG. 1. The experiment is classed as binding, Human. As to the method: (§1) In this validation step each one identified fragment prey and one chemical probe (HBX129653, HBX129654) is tested in a 1-by-1 experiment. The plasmids from 3 selected preys from the screening library were extracted from the yeast cells, amplified in E. coli and re-transformed into YHGX13 yeast cells. For each interaction, DO1, 1/10, 1/100 and 1/1000 of the diploid yeast culture expressing both hook and prey constructs were spotted on a selective medium without tryptophan, leucine and histidine and supplemented with the chemical probe and FK506. Interactions were tested in duplicate. One plate was used per chemical compound and concentration (DMSO, 5, 10 and 20 μM of HBX129653, 5, 10 and 20 μM of HBX129654, 5 μM of HBX24786 Trimethoprim (TMP) and 5 μM of HBX129634 (TMP-PEG5-OH)). Plates were incubated at 30° C. for 3 days.
(§2) The coding sequence of full-length PAPD5var1 (NM_001040284.2) and PAPD7varX1 (XM_005248234.2) were reconstituted from an N-terminal codon-optimized gene fragment (to remove high GC content) and commercially available clones of the C-terminal regions of the proteins and cloned in frame with the Gal4 Activation Domain (AD) into plasmid pP7 (AD-Prey), derived from the original pGADGH (Bartel et al., 1993 in Cellular interactions in development: A practical approach. ed. Hartley, D. A., Oxford University Press, Oxford, pp. 153-179). The constructs were checked by sequencing the entire inserts. For each prey, a mini-mating was carried out between YHGX13 (Y187 ade2-101::loxP-kanMX-loxP, mata) transformed with the prey plasmids and YPT6AT yeast cells (mata) transformed with the DHFR hook (Dihydrofolate reductase) to produce a diploid yeast culture. For each interaction, DO1, 1/10, 1/100 and 1/1000 of the diploid yeast culture expressing both hook and prey constructs were spotted on a selective medium without tryptophan, leucine and histidine and supplemented with the chemical probe and FK506. Interactions were tested in duplicate. One plate was used per chemical compound and concentration (DMSO, 5, 10 and 20 μM of HBX129653, 5, 10 and 20 μM of HBX129654, 5 μM of HBX24786 Trimethoprim (TMP) and 5 μM of HBX129634 (TMP-PEG5-OH)). Plates were incubated at 30° C. for 3 days.
(§3) In a first validation step three fragments identified in the first screen were selected for the 1-by-1 validation assay (as described in the Materials and Method section) and tested at three different concentrations ([…]) (Table 11).
(§4) In a second validation step, full length proteins for PAPD5 and PAPD7 were synthesized and used for 1-by-1 validation (as described in the Materials and Method section) with DHQ and THP (Table 12).

The target of experiment [2] is T1, PAPD5 (Homo sapiens, UniProt Q8NDF8).
T1 construct: full length proteins for PAPD5 and PAPD7 were synthesized and used for 1-by-1 validation; expressed in transfected cells; host or cells: diploid yeast (YHGX13 with the prey plasmid mated to YPT6AT with the DHFR hook)
The description is as above. In kind it is binding. To be noted: PAPD5 var1 full length; FIG. 2. How it is done: as §1, §2, §3, §4

Experiment [3] deals with T2, PAPD7 (Homo sapiens, UniProt Q5XG87).
T2 construct: full length proteins for PAPD5 and PAPD7 were synthesized and used for 1-by-1 validation; expressed in transfected cells; host or cells: diploid yeast (YHGX13 with the prey plasmid mated to YPT6AT with the DHFR hook)
The description is as above. In kind it is binding. The settings on record: PAPD7 full length; FIG. 2. As to the method: as §1, §2, §3, §4

The subject of experiment [4] is PAPD7. The description is as above. The experiment is classed as binding, Human. To be noted: PAPD7 fragment; already at the lowest tested concentration (5 of 5, 10, 20 μM); FIG. 1. As to the method:
as §1, §2, §3, §4

For experiment [5], the target named is T1, PAPD5. Description: Y3H ULTImate YChemH competition with free compound. In kind it is binding. The settings on record: PAPD5 var1 fragment and full length; probe HBX129653 or HBX129654 1 μM; free compound 0-20 μM; FIG. 3-6. How it is done: (§5) The competition assays were performed on selective medium at 8 concentrations of the free compound (0, 0.25, 0.5, 1, 2, 5, 10 and 20 μM) and a consistent concentration for the tagged Y3H-compound (1 μM).

In experiment [6] the target is T2, PAPD7. Description: Y3H ULTImate YChemH competition with free compound. The experiment is classed as binding. The settings on record: PAPD7 varX1 fragment and full length; probe HBX129653 or HBX129654 1 μM; free compound 0-20 μM; FIG. 3-6. How it is done: as §5

T2 sequence (Q5XG87 whole entry): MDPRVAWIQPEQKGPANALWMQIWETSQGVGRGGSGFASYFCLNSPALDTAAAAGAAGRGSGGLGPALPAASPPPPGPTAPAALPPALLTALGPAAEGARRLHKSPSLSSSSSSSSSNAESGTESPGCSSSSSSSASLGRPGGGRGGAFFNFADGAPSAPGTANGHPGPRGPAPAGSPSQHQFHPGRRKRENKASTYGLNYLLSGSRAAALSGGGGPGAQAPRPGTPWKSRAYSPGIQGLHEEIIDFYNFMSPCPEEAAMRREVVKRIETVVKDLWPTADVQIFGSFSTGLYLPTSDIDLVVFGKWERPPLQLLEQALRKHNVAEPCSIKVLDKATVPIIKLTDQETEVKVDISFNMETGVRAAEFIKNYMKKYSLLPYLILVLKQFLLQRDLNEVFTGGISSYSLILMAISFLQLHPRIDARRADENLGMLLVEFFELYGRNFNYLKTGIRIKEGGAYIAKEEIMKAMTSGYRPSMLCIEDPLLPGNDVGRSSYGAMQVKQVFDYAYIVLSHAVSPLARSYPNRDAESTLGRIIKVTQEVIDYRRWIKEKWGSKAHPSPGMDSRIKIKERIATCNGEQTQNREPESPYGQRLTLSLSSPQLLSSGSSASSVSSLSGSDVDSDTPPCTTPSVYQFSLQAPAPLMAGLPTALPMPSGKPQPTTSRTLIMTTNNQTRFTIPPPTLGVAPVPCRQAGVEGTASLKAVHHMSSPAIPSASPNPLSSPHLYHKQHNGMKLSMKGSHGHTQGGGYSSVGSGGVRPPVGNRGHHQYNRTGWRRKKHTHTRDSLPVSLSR
T1 sequence (Q8NDF8 1-698 isoform Q8NDF8-5): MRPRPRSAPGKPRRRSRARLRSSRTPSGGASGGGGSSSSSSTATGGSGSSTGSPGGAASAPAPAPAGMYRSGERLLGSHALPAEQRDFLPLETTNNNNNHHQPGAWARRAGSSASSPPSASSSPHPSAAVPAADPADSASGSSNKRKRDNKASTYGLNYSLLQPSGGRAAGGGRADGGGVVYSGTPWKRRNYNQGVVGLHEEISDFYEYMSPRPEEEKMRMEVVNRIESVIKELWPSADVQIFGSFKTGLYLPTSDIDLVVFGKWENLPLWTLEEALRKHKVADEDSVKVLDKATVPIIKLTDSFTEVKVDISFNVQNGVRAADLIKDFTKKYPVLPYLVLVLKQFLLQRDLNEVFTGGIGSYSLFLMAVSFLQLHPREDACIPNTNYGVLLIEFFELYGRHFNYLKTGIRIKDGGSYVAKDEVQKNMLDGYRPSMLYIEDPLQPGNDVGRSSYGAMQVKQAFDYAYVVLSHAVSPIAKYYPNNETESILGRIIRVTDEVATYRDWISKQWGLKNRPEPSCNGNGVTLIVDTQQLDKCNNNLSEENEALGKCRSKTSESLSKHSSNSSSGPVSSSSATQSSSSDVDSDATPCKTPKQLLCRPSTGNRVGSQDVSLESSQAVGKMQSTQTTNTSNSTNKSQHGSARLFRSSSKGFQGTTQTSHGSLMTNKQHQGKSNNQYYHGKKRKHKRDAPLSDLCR

Turning to `COCCCOc1cc2c(cc1Cl)-c1cc(=O)c(C(=O)O)cn1[C@H](C(C)C)C2` [MOL653], the “1-by-1 validation of prey fragments as binders” value in the experiment with PAPD5 [1] and in the experiment with PAPD7 [4] was “validated as specific binders” throughout. Also, the “1-by-1 validation, interaction with full length protein” value at PAPD5 [2] and at PAPD7 [3] was “confirmed at the lowest tested concentration” each time. Besides, the “competition of free compound with the chemical probe” value at PAPD5 [5] and at PAPD7 [6] was “competition could be observed” throughout.

For the compound `COc1cc(N2CCc3nc(-c4ncccn4)ncc3[C@H]2C)cc(F)c1F` [MOL654], the “1-by-1 validation of prey fragments as binders” value with PAPD5 [1] and in the experiment with PAPD7 [4] was “validated as specific binders” each time. Also, the “1-by-1 validation, interaction with full length protein” value at PAPD5 [2] and at PAPD7 [3] was “confirmed at the lowest tested concentration” in each case. Moreover, the “competition of free compound with the chemical probe” value at PAPD5 [5] and on PAPD7 [6] was “competition could be observed” each time.

The record behind these values is patent US11534452B2, “Nucleic acid molecules for reduction of PAPD5 or PAPD7 mRNA for treating hepatitis B infection” (HOFFMANN-LA ROCHE INC., priority 2016, dated 2022).
